Where two headings read alike, the source gives them in different places.
What was measured:
Assay type in all cases: in vivo
[1] = system: Glomerella lagenarium; Anamorph: Colletotrichum lagenarium; assay: Fungicidal activity: Cucumber Anthracnose (COLLLA); settings: 100 ppm, 1 DP (1 Day Protectant)
Experimental: Technical grades of materials were dissolved in acetone, which were then mixed with nine volumes of water containing 110 ppm Triton X-100. The fungicide solutions were applied onto wheat seedlings using an automated booth sprayer to run-off. All sprayed plants were allowed to air dry prior to further handling. All fungicides were evaluated using the aforementioned method for their activity vs. all target diseases, unless stated otherwise. Wheat leaf blotch and brown rust activity were also evaluated using track spray applications, in which case the fungicides were formulated as EC formulations, containing 0.1% Trycol 5941 in the spray solutions. Wheat plants (variety Yuma) were grown from seed in a greenhouse in 50% mineral soil/50% soil-less Metro mix until the first leaf was fully emerged, with 7-10 seedlings per pot. These plants were inoculated with an aqueous spore suspension of Septoria tritici either prior to or after fungicide treatments. After inoculation the plants were kept in 100% relative humidity (one day in a dark dew chamber followed by two to three days in a lighted dew chamber at 20° C.) to permit spores to germinate and infect the leaf. The plants were then transferred to a greenhouse set at 20° C. for disease to develop. When disease symptoms were fully expressed on the 1st leaves of untreated plants, infection levels were assessed on a scale of 0 to 100 percent disease severity. Percent disease control was calculated using the ratio of disease severity on treated plants relative to untreated plants. Evaluation of Fungicidal Activity: Cucumber Anthracnose (Glomerella lagenarium; Anamorph: Colletotrichum lagenarium; Bayer Code COLLLA) Cucumber seedlings (variety Bush Pickle) were propagated in soil-less Metro mix, with each pot having one plant, and used in the test when 12 to 14 days old. Test plants were inoculated with an aqueous spore suspension of Colletotrichum lagenarium 24 hr after fungicide treatments. After inoculation the plants were kept in a dew room at 22° C. with 100% relative humidity for 48 hr to permit spores to germinate and infect the leaf. The plants were then transferred to a growth room set at 22° C. for disease to develop. Fungicide formulation, application and disease assessment on the sprayed leaves followed the procedures as described in the Example A.

Alternaria solani = assay: Fungicidal activity: Tomato Early Blight (ALTESO); settings: 100 ppm, 1 DP (1 Day Protectant)
Experimental: Technical grades of materials were dissolved in acetone, which were then mixed with nine volumes of water containing 110 ppm Triton X-100. The fungicide solutions were applied onto wheat seedlings using an automated booth sprayer to run-off. All sprayed plants were allowed to air dry prior to further handling. All fungicides were evaluated using the aforementioned method for their activity vs. all target diseases, unless stated otherwise. Wheat leaf blotch and brown rust activity were also evaluated using track spray applications, in which case the fungicides were formulated as EC formulations, containing 0.1% Trycol 5941 in the spray solutions. Wheat plants (variety Yuma) were grown from seed in a greenhouse in 50% mineral soil/50% soil-less Metro mix until the first leaf was fully emerged, with 7-10 seedlings per pot. These plants were inoculated with an aqueous spore suspension of Septoria tritici either prior to or after fungicide treatments. After inoculation the plants were kept in 100% relative humidity (one day in a dark dew chamber followed by two to three days in a lighted dew chamber at 20° C.) to permit spores to germinate and infect the leaf. The plants were then transferred to a greenhouse set at 20° C. for disease to develop. When disease symptoms were fully expressed on the 1st leaves of untreated plants, infection levels were assessed on a scale of 0 to 100 percent disease severity. Percent disease control was calculated using the ratio of disease severity on treated plants relative to untreated plants. Evaluation of Fungicidal Activity: Tomato Early Blight (Alternaria solani; Bayer Code […]) Tomato plants (variety Outdoor Girl) were propagated in soil-less Metro mix, with each pot having one plant, and used when 12 to 14 days old. Test plants were inoculated with an aqueous spore suspension of Alternaria solani 24 hr after fungicide treatments. After inoculation the plants were kept in 100% relative humidity (one day in a dark dew chamber followed by two to three days in a lighted dew chamber at 20° C.) to permit spores to germinate and infect the leaf. The plants were then transferred to a growth room at 22° C. for disease to develop. Fungicide formulation, application and disease assessment on the sprayed leaves followed the procedures as described in the Example A.

Puccinia triticina = assay: Fungicidal activity: Wheat Brown Rust (PUCCRT); settings: for pest or weed control at 121.5 g/ha: Low Volume (121.5 g/H); for pest or weed control at 100 µg/mL: High Volume (100 ppm)
Summary of the method: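 Wheat seedlings (Yuma, first leaf) sprayed to run-off with compound in acetone/water with Triton X-100, inoculated with Puccinia triticina before or after treatment. Held overnight in dark dew at 22° C, then greenhouse at 24° C; percent disease control from severity versus untreated plants.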

[2] = 24 h, 1 Day Protectant, read-out: PUCCRT 1 DP disease control
[3] = 72 h, 3 Day Curative, read-out: PUCCRT 3 DC disease control

Structure (SMILES) | COLLLA disease control rating [1] | ALTESO disease control rating (Alternaria solani) | pest or weed control at 121.5 g/ha (Puccinia triticina; [2]) [%] | pest or weed control at 121.5 g/ha (Puccinia triticina; [3]) [%] | pest or weed control at 100 µg/mL (Puccinia triticina; [2]) [%] | pest or weed control at 100 µg/mL (Puccinia triticina; [3]) [%]
CCCC[C@@H]1[C@@H](Cc2ccc(C(F)(F)F)cc2)COC[C@H](NC(=O)c2nccc(OC)c2OCOC(C)=O)C(=O)O[C@H]1C [compound 16] | A (>70) | A (>70) | > 70 | > 70 |  | 
COc1ccnc(C(=O)N[C@H]2COC[C@H](c3ccccc3)[C@@H](c3ccccc3)[C@H](C)OC2=O)c1OCOC(C)=O [compound 7] | A (>70) | A (>70) | > 70 | > 70 | > 70 | > 70
COc1ccnc(C(=O)N[C@H]2COC[C@H](Cc3ccccc3)[C@@H](Cc3ccccc3)[C@H](C)OC2=O)c1OC(C)=O [compound 27] | A (>70) | A (>70) | > 70 | > 70 |  | 
COc1ccnc(C(=O)N[C@H]2COC[C@H](CC3CC3)[C@@H](c3ccccc3)[C@H](C)OC2=O)c1OC(C)=O [compound 100] | A (>70) | A (>70) | > 70 | > 70 |  | 
COc1ccnc(C(=O)N[C@H]2COC[C@H](Cc3ccccc3)[C@@H](Cc3ccccc3)[C@H](C)OC2=O)c1OCOC(C)=O [Cmpd. 3, ((2-(((3S,7R,8R,9S)-7,8-dibenzyl-9-methyl-2-oxo-1,5-dioxonan-3-yl)carbamoyl)-4-methoxypyridin-3-yl)oxy)methyl acetate] | A (>70) | A (>70) | > 70 | > 70 | > 70 | < 70
CCCC[C@@H]1[C@@H](Cc2ccccc2)COC[C@H](NC(=O)c2nccc(OC)c2OCOC(=O)C(C)C)C(=O)O[C@H]1C [compound 1] | A (>70) | A (>70) | > 70 | < 70 | > 70 | > 70

From patent publication US9955691B2, “Macrocyclic picolinamides as fungicides” (DOW AGROSCIENCES LLC, priority 2014, dated 2018)
